Experimental data: PubChem BioAssay (NCI)
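Tested at 5 concentrations; 48 h exposure; 96-well plates; endpoints linearly interpolated, else capped at highest concentration. GI50 = concentration required for 50% inhibition of growth. TGI marks complete inhibition of growth.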

Test system: MDA-MB-468 breast
Assay: NCI-60 cell line screen, 48 h

Compound: OC(c1cc2cc(Cl)c(Cl)cc2c2cc(C(F)(F)F)ccc12)C1CCCCN1 (stereo not given)
- GI50: 1580 nM
- TGI: 2.94 µM

Compound: COc1ccc(OC)c(Cn2cc3c(c2)-c2oncc2CC3)c1
- GI50: 1200 nM
- TGI: 4.37 µM

Compound: CN1CCN(Cc2ccc(NC(=O)c3[nH]ncc3Nc3ncnc4sc5c(c34)CCCC5)cc2)CC1
- GI50: 476 nM
- TGI: 2.3 µM

Compound: Cc1c(C2=C(c3cn(C)c4ccccc34)C(=O)NC2=O)c2ccccc2n1C
- GI50: 921 nM
- TGI: > 22.5 µM

Compound: CCCCn1c(=O)c2c(nc3n2CCCN3CCc2ccc(OCC(=O)NCCN(CC)CC)cc2)n(CCCC)c1=O
- GI50: 1730 nM
- TGI: 6.86 µM

Compound: COc1ccc(C2[C@@H](Cl)C(=O)N2c2cc(OC)c(OC)c(OC)c2)cc1Cl (stereo not given in full)
- GI50: 201 nM
- TGI: 0.963 µM

Compound: COC(=O)c1nc(-c2ccccc2)oc1S(=O)(=O)n1nc(C)cc1N
- GI50: 3980 nM
- TGI: 16.9 µM

Compound: CC(C)(C)CN1CCn2c(nc3c(N)nccc32)S1
- GI50: 5380 nM
- TGI: 50.3 µM

Compound: COc1ccc(C(=O)N2c3ccccc3Sc3ccccc32)c(OC)c1
- GI50: 327 nM
- TGI: 56.1 µM

Compound: Cc1cccc(NC(=O)c2sc3nc4c(cc3c2N)CN(Cc2ccccc2)CC4)c1C
- GI50: 151 nM
- TGI: 11.6 µM

Compound: CCCCCn1sc(=O)n(Cc2ccc(CNC(=O)OCc3ccc4cccc(O)c4n3)cc2)c1=O
- GI50: 1710 nM
- TGI: 3.56 µM

Compound: COc1ccc2cc(-c3c(-c4ccncc4)nc(-c4ccc(S(C)=O)cc4)n3C)ccc2c1 (stereo not given)
- GI50: 3110 nM
- TGI: > 25 µM

Compound: CC(=O)Oc1ccccc1C(=O)/C=C/c1cccc([N+](=O)[O-])c1
- GI50: 2030 nM
- TGI: 4 µM

Compound: O=C(Oc1cccnc1)c1ccsc1Nc1ccnc(C(F)(F)F)c1
- GI50: 1800 nM
- TGI: 4.4 µM

Compound: COc1ccc2c(c1)OC1=C(C(=O)OC1)C2c1cc(OC)c2c(c1)OCO2 (stereo not given)
- GI50: 26.4 nM
- TGI: 0.0987 µM

Compound: CC(C)(C)c1ccc(C(=O)Nc2sc3c(c2C(N)=O)CCC(=O)C3)cc1
- GI50: 506 nM
- TGI: 2.09 µM

Compound: O=c1[nH]cnc2c(C3NC(CO)C(O)C3O)c[nH]c12 (stereo not given)
- GI50: > 100000 nM
- TGI: > 100 µM

Compound: N#CN1CC[C@H](C(=O)Nc2ncc(-c3ccncc3)s2)C1
- GI50: < 15.6 nM
- TGI: < 0.0282 µM

Compound: CC1OC(O[C@H]2/C=C/C=C/C=C/C=C/C=C/C=C/C=C/[C@H](C)[C@@H](O)[C@@H](C)[C@H](C)OC(=O)CC(O)CC(O)CCC(O)C(O)CC(O)C[C@]3(O)C[C@H](O)C(C(=O)O)C(C2)O3)C(O)[C@H](N)C1O (stereo not given in full)
- GI50: 14900 nM
- TGI: 32.4 µM

Compound: CCN1C(=O)N(CC)C2C1NN=c1s/c(=C3\C(=O)N(CCc4ccccc4)c4ccccc43)c(=O)n12 (stereo not given)
- GI50: 338 nM
- TGI: 2.37 µM

Compound: COc1ccc(/C=N/NC(=O)Cn2c(-c3ccc(S(C)(=O)=O)cc3)nc3cc(Cl)ccc32)cc1
- GI50: 1510 nM
- TGI: 9.14 µM

Compound: CCN1C(=O)N(CC)C2C1NN=c1s/c(=C\c3ccccc3Br)c(=O)n12 (stereo not given)
- GI50: 35.2 nM
- TGI: 1.15 µM

Compound: Cn1cc(-c2nonc2-c2cn(C)c3ccccc23)c2ccccc21
- GI50: 492 nM
- TGI: > 32.4 µM

Compound: CCOP(=O)(OCC)OC[C@]12CC[C@@H](C)[C@H](C)C1C1=CC[C@@H]3[C@@]4(C)CCCNC(C)(C)[C@@H]4CC[C@@]3(C)[C@]1(C)CC2 (stereo not given in full)
- GI50: 1390 nM
- TGI: 2.91 µM

Compound: Cc1nc2ccccc2c(/C=C/c2ccc(Br)cc2)c1C(=O)/C=C/c1ccccc1
- GI50: 1980 nM
- TGI: 4.2 µM
